Assay results as given in patent US9382254B2, “Compounds and pharmaceutical compositions thereof for the treatment of cystic fibrosis” (Galapagos NV, priority 2013, dated 2016).

What was measured:
CFTR G551D mutant = molecular target: T1, CFTR G551D mutant (Homo sapiens, UniProt P13569, G551D); test: YFP-halide influx assay for the CFTR-G551D mutation; assay type: cell-based; details: HEK293 cells, forskolin 10.67 μM
T1 construct: expressed in transfected cells; host or cells: HEK293 (reverse transfection with plasmid)
T1 sequence (P13569 whole entry G551D): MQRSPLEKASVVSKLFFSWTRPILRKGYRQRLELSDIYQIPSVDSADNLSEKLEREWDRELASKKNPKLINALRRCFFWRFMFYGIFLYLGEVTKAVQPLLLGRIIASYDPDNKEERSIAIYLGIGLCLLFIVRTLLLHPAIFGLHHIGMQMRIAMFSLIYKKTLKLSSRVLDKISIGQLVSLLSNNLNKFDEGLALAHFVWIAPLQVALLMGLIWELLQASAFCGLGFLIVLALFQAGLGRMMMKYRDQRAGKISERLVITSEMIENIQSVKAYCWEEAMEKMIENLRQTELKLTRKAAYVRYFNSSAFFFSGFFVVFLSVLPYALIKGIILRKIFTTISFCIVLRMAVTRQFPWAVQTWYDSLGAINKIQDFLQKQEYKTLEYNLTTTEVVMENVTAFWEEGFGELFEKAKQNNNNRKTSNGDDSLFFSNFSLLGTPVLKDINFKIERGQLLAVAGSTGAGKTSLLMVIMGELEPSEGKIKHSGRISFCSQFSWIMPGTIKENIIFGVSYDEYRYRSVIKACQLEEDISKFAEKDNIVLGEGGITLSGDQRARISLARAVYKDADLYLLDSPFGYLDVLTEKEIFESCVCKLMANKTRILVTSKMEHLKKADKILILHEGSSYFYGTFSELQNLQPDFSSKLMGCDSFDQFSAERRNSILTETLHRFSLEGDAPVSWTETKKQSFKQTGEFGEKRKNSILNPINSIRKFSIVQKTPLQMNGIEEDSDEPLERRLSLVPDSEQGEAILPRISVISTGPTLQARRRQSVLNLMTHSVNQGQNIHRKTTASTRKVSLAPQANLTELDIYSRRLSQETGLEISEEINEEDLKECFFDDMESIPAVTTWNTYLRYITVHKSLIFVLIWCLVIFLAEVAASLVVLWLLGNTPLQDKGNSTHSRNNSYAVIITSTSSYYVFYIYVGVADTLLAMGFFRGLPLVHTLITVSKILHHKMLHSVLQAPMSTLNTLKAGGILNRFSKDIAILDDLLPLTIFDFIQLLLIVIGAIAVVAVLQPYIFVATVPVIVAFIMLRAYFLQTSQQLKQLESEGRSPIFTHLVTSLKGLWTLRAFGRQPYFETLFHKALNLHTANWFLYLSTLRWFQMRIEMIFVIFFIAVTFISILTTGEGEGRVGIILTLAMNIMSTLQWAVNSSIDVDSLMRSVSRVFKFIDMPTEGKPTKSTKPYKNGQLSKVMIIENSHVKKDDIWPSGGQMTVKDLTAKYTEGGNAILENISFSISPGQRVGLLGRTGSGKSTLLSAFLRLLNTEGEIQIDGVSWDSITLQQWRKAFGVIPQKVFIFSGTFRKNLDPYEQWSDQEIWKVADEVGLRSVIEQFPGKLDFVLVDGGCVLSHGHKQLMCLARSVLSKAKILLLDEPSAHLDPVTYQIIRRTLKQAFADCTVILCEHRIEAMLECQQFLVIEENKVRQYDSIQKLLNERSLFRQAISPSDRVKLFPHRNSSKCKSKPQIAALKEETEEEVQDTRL
From the text: The YFP halide influx assay measures the functionality of the cystic fibrosis Transmembrane Conductance regulator (CFTR) channels. The assay is used to evaluate the capacity of compounds to increase the channel opening of existing mutant CFTR channels in the membrane. It makes use of the observation that the yellow fluorescent protein (YFP) variant YFP H148Q, I152L, […] has its fluorescence substantially quenched by halide ions like Cl^− and I^−. (Galietta, Haggie, & Verkman, 2001)
For this purpose, HEK293-cells are seeded in 96 well plates. During seeding, the cells are reverse-transfected with plasmid vectors that direct the expression of the CFTR G551D mutant and of the YFP reporter. Cells are incubated at 37° C., 5% CO2 for 24 hours so as to allow for sufficient expression of the CFTR protein.
(§1) The I^−-induced quenching of fluorescence is recorded immediately after injection of I^− for 7 seconds. The capacity of a compound to increase the channel opening is directly correlated with the decrease in fluorescence, and is expressed as (1-(fluorescence after 7 seconds (F)/fluorescence before injection (F0))) and an EC50 can be derived from a (1-F/F0) vs compound concentration plot.

CFTR ΔF508 mutant = molecular target: T2, CFTR ΔF508 mutant (Homo sapiens, UniProt P13569, DEL508-508); test: YFP-halide influx assay for the CFTR-ΔF508 mutation (384 well, FDSS/μCell); assay type: cell-based; details: CFBE41o- cells, CFTR-ΔF508, 1×D-PBS, fluorescence after 36 seconds
T2 construct: expressed in transfected cells; host or cells: CFBE41o- (adenoviral transduction)
T2 sequence (P13569 with tags, fused parts or gaps DEL508-508): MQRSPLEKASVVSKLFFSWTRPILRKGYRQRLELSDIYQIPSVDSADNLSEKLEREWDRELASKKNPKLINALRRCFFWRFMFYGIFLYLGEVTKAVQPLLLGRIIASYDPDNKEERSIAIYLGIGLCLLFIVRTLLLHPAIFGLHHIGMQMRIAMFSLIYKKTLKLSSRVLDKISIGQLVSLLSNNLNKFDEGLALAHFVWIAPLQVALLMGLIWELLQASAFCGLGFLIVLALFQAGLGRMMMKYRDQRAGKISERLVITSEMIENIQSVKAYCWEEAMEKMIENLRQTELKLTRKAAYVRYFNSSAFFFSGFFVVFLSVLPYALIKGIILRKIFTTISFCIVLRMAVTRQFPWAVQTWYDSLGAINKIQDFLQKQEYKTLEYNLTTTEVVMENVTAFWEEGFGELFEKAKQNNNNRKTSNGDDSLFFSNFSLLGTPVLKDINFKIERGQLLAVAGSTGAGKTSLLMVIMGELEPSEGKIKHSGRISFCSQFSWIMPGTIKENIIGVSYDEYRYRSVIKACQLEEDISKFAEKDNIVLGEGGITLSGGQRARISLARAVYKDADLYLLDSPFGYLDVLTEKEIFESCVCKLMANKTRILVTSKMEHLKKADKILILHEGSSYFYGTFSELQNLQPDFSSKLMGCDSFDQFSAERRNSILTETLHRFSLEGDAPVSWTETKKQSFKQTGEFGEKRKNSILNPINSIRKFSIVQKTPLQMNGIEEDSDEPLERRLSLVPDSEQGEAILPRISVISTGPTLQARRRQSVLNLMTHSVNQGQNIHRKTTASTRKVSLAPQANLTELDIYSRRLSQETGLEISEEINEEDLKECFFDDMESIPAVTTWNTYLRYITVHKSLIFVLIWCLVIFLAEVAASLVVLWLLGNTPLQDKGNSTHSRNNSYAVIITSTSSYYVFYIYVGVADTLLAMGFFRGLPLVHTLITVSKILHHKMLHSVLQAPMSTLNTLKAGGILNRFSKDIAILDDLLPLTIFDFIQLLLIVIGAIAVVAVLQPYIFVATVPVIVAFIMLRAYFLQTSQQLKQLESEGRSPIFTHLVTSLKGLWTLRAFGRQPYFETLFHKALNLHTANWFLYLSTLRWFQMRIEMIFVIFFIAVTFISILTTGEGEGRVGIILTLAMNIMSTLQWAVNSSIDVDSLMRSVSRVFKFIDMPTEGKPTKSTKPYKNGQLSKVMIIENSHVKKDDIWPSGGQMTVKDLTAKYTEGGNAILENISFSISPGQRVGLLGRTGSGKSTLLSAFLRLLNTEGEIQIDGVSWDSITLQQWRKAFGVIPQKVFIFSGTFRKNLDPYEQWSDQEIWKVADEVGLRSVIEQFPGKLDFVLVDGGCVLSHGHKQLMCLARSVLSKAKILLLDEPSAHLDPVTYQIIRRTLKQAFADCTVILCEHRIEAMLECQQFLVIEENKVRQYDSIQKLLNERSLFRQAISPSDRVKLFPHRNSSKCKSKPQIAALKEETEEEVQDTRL
From the text: The YFP halide influx assay measures the functionality of the cystic fibrosis Transmembrane Conductance regulator (CFTR) channels in the cystic fibrosis bronchial epithelium cell line CFBE41o-. The assay is used to evaluate the capacity of compounds to increase the open probability of existing CFTR channels in the membrane. It makes use of the observation that the yellow fluorescent protein (YFP) variant YFP H148Q, I152L has its fluorescence substantially quenched by halide ions like Cl— and I—. (Galietta, Haggie, & Verkman, 2001) (Nagai, et al., 2002)
For this purpose, CFBE41o-cells are seeded in 384 well plates (3000 CFBE cells/well). One day after seeding, the CFBE cells are transduced with adenoviral vectors that direct the expression of the CFTR ΔF508 mutant and of the YFP reporter. Cells are incubated at 27° C., 5% CO2 for 24 hours so as to allow for the proper folding and migration to the membrane of the CFTR channel or treated with a CFTR modulator during 24 h at 37° C.
as §1, with “I— induced” for “I^−-induced”, “recorded […]” for “recorded”, “I—” for “I^−”, “2 min on an FDSS/μCell (Hamamatsu).” for “7 seconds.”, “36” for “7”

| Molecule | EC50 (CFTR G551D mutant) | EC50 (CFTR ΔF508 mutant) | EC50 (CFTR G551D mutant; class symbol) |
| --- | --- | --- | --- |
| CC(CO)C(=O)Nc1sc(S(=O)(=O)c2ccc(OC(F)(F)F)cn2)cc1C(N)=O (stereo not shown) [Compound 392, 2-[(3-hydroxy-2-methyl-propanoyl)amino]-5-[[5-(trifluoromethoxy)-2-pyridyl]sulfonyl] thiophene-3-carboxamide] | 1600 nM | 84.6 nM |  |
| CC(O)C(=O)Nc1sc(S(=O)(=O)c2ccc(OC(F)F)cc2)cc1C(N)=O (stereo not shown) [Compound 403, 5-[4-(difluoromethoxy)phenyl] sulfonyl-2-(2-hydroxypropanoylamino) thiophene-3-carboxamide] | 1610 nM | 27.5 nM |  |
| CC(C)(O)C(=O)Nc1sc(S(=O)(=O)c2ccc(Cl)nc2)cc1C(N)=O [Compound 385, 5-[(6-chloro-3-pyridyl)sulfonyl]-2-[(2-hydroxy-2-methyl-propanoyl)amino] thiophene-3-carboxamide] | 1180 nM | 62.6 nM |  |
| CC(O)C(=O)Nc1sc(S(=O)(=O)c2cc(F)ccc2C(F)(F)F)cc1C(N)=O (stereo not shown) [Compound 335, 5-[5-fluoro-2-(trifluoromethyl)phenyl] sulfonyl-2-(2-hydroxypropanoylamino) thiophene-3-carboxamide] | 107 nM | 5.7 nM |  |
| CC(C)(O)C(=O)Nc1sc(S(=O)(=O)c2cc(Cl)cnc2C(F)(F)F)cc1C(N)=O [Compound 440, 5-[[5-chloro-2-(trifluoromethyl)-3-pyridyl]sulfonyl]-2-[(2-hydroxy-2-methyl-propanoyl)amino] thiophene-3-carboxamide] | 2190 nM | 13 nM |  |
| CC(C)Oc1ccc(S(=O)(=O)c2cc(C(N)=O)c(NC(=O)C(C)(C)O)s2)c(Cl)c1 [Compound 322, 5-(2-Chloro-4-isopropoxy-benzenesulfonyl)-2-(2-hydroxy-2-methyl-propionylamino)-thiophene-3-carboxylic acid amide] | 919 nM | 41.1 nM |  |
| NC(=O)c1cc(S(=O)(=O)c2ccc(OC(F)(F)F)cc2)sc1NC(=O)C1(CO)CC1 [Compound 357, 2-[[1-(hydroxymethyl)cyclopropanecarbonyl]amino]-5-[4-(trifluoromethoxy)phenyl] sulfonyl-thiophene-3-carboxamide] | 301 nM | 29.7 nM |  |
| CC(C)(C)[C@H](O)C(=O)Nc1sc(S(=O)(=O)c2ccc(C(F)(F)F)cc2)cc1C(N)=O [Compound 365, 2-[[(2S)-2-hydroxy-3,3-dimethyl-butanoyl]amino]-5-[4-(trifluoromethyl)phenyl] sulfonyl-thiophene-3-carboxamide] | 306 nM | 29.9 nM |  |
| 5-[[5-bromo-6- (trifluoromethyl)-3-pyridyl] sulfonyl]-2-[(2-hydroxy-2- methyl-propanoyl)amino] thiophene-3-carboxamide [Compound 441] |  |  | > 1000 nM |
| CC(C)C(O)C(=O)Nc1sc(S(=O)(=O)c2ccc(F)cc2)cc1C(N)=O (stereo not shown) [Compound 341, 5-(4-fluorophenyl)sulfonyl-2-[(2-hydroxy-3-methyl-butanoyl)amino] thiophene-3-carboxamide] | 1510 nM | 20.2 nM |  |
| CC(C)[C@H](O)C(=O)Nc1sc(S(=O)(=O)c2ccc(F)cc2Cl)cc1C(N)=O [Compound 361, 5-(2-chloro-4-fluoro-phenyl)sulfonyl-2-[[(2S)-2-hydroxy-3-methyl-butanoyl]amino] thiophene-3-carboxamide] | 280 nM | 7.01 nM |  |
| CC(C)[C@H](O)C(=O)Nc1sc(S(=O)(=O)c2ccc(F)cc2C(F)(F)F)cc1C(N)=O [Compound 356, 5-[4-fluoro-2-(trifluoromethyl)phenyl] sulfonyl-2-[[(2S)-2-hydroxy-3-methyl-butanoyl]amino] thiophene-3-carboxamide] | 502 nM | 17.2 nM |  |
| CC(C)(CO)C(=O)Nc1sc(S(=O)(=O)c2ccc(OC(F)(F)F)cc2)cc1C(N)=O [Compound 446, 2-[(3-hydroxy-2,2-dimethyl-propanoyl)amino]-5-[4-(trifluoromethoxy)phenyl] sulfonyl-thiophene-3-carboxamide] |  | 41.3 nM |  |
| 2-[[(2S)-2-hydroxy-3-methyl- butanoyl]amino]-5-[4- (trifluoromethyl)phenyl] sulfonyl-thiophene-3- carboxamide [Compound 366] | 458 nM |  | 100 to 500 nM |
| 5-(4-fluoro-2-(methoxymethyl) phenylsulfonyl)-2-(2-hydroxy- 2-methylpropanamido) thiophene-3-carboxamide [Compound 300] | 1760 nM |  | > 1000 nM |
| C[C@H](O)C(=O)Nc1sc(S(=O)(=O)c2ccc(C(F)(F)F)cc2F)cc1C(N)=O [Compound 445, 5-[2-fluoro-4-(trifluoromethyl)phenyl] sulfonyl-2-[[(2S)-2-hydroxypropanoyl]amino] thiophene-3-carboxamide] |  | 19.6 nM |  |
| 5-(4-chlorophenyl)sulfonyl-2- [[(2S)-2-hydroxy-3- methyl-butanoyl]amino] thiophene-3-carboxamide [Compound 367] | 794 nM |  | 500 to 1000 nM |
| CC(O)C(=O)Nc1sc(S(=O)(=O)c2c(Cl)cc(F)cc2Cl)cc1C(N)=O (single isomer, unassigned; enantiomer 1) [Compound 354] | 1260 nM |  |  |

Continued by falling EC50 (CFTR ΔF508 mutant), values first:

| EC50 (CFTR G551D mutant) | EC50 (CFTR ΔF508 mutant) | Molecule | EC50 (CFTR G551D mutant; class symbol) |
| --- | --- | --- | --- |
|  | 1060 nM | Cc1ncccc1S(=O)(=O)c1cc(C(N)=O)c(NC(=O)C(C)O)s1 (stereo not shown) [Compound 326, 2-(2-hydroxypropanoylamino)-5-[(2-methyl-3-pyridyl)sulfonyl] thiophene-3-carboxamide] | > 1000 nM |
|  | 305 nM | COc1cnc(C(F)(F)F)nc1S(=O)(=O)c1cc(C(N)=O)c(NC(=O)C(C)(C)O)s1 [Compound 415, 2-[(2-hydroxy-2-methyl-propanoyl)amino]-5-[5-methoxy-2-(trifluoromethyl)pyrimidin-4-yl]sulfonyl-thiophene-3-carboxamide] | > 1000 nM |
|  | 216 nM | CC(C)(O)C(=O)Nc1sc(S(=O)(=O)c2nc(CO)ccc2C(F)(F)F)cc1C(N)=O [Compound 438, 2-[(2-hydroxy-2-methyl-propanoyl)amino]-5-[[6-(hydroxymethyl)-3-(trifluoromethyl)-2-pyridyl]sulfonyl] thiophene-3-carboxamide] | > 1000 nM |
| 668 nM | 39 nM | CC(CO)C(=O)Nc1sc(S(=O)(=O)c2ccc(OC(F)(F)F)cc2)cc1C(N)=O (stereo not shown) [Compound 350, 2-[(3-hydroxy-2-methyl-propanoyl)amino]-5-[4-(trifluoromethoxy)phenyl] sulfonyl-thiophene-3-carboxamide] |  |
| 2930 nM | 38.3 nM | CC(O)C(=O)Nc1sc(S(=O)(=O)c2c(F)cccc2F)cc1C(N)=O (stereo not shown) [Compound 313, 5-(2,6-Difluoro-benzenesulfonyl)-2-(2-hydroxy-propionylamino)-thiophene-3-carboxylic acid amide] |  |
| 1850 nM | 26.1 nM | CC(C)(O)C(=O)Nc1sc(S(=O)(=O)c2ccc(OC(F)(F)F)c(F)c2F)cc1C(N)=O [Compound 378, 5-[2,3-difluoro-4-(trifluoromethoxy)phenyl] sulfonyl-2-[(2-hydroxy-2-methyl-propanoyl)amino] thiophene-3-carboxamide] |  |
|  | 19.6 nM | C[C@H](O)C(=O)Nc1sc(S(=O)(=O)c2ccc(OC(F)(F)F)cc2F)cc1C(N)=O [Compound 444, 5-[2-fluoro-4-(trifluoromethoxy)phenyl] sulfonyl-2-[[(2S)-2-hydroxypropanoyl]amino] thiophene-3-carboxamide] |  |
| 872 nM | 12.2 nM | CC(C)(O)C(=O)Nc1sc(S(=O)(=O)c2cc(F)c(F)cc2Cl)cc1C(N)=O [Compound 336, 5-(2-Chloro-4,5-difluoro-benzenesulfonyl)-2-(2-hydroxy-2-methyl-propionylamino)-thiophene-3-carboxylic acid amide] |  |
| 1820 nM | 10.5 nM | CCc1ccccc1S(=O)(=O)c1cc(C(N)=O)c(NC(=O)C(C)O)s1 (stereo not shown) [Compound 312, 5-(2-Ethyl-benzenesulfonyl)-2-(2-hydroxy-propionylamino)-thiophene-3-carboxylic acid amide] |  |
